Assay results as given in PMC12480552 (Scientific Reports, 2025).
Like-named read-outs stand apart in the source and are kept apart here.

Assays:
[1] = in vivo; conditions: male, rhesus monkey; for Kp / Kp uu: brain
Method: Animals were randomized using the GSK Randomization App 2.0, which is an internal software tool that uses the ‘sample’ function in R to randomly shuffle animal IDs, then assigns them to treatment groups to ensure unbiased allocation.
Before each dose, animals were lightly sedated with an intramuscular injection of ketamine (5–10 mg/kg), and a blood sample was drawn. […] NHPs were euthanized by administering an overdose of injected sodium pentobarbital IV (150–200 mg/kg) and confirmed by thoracotomy and exsanguination. Terminal plasma, cerebrospinal fluid, and brain tissue were collected at necropsy. […] The brain was cut into six roughly 1-cm thick coronal segments before snap-freezing by floating on liquid nitrogen. The right hemispheres of the four interior coronal brain segments were cryosectioned and analyzed by matrix-assisted laser desorption/ionization mass spectrometry imaging (MALDI MSI) to quantitatively assess the tissue distribution of the dosed compounds[40]–[43]. After MALDI MSI analysis, tissue sections were stained with hematoxylin and eosin (H&E) for correlation of ion images with underlying tissue histology.
Brain tissue was weighed in polypropylene tubes, then phosphate-buffered saline (PBS) was added to the tissue sample before homogenization (1:4 wt: vol).
The LC-MS/MS system includes an API-6500 triple quadrupole mass spectrometer (Sciex, Framingham, MA) and an ExionLC system (ExionLC Controller, ExionLC AD Column Oven, ExionLC AD Pump, and ExionLC AD Multiplate Sampler; all from Sciex). Data were acquired and processed using Analyst® 1.7.2 software (Sciex). An Acquity UHPLC BEH C18 analytical column (1.7-µm, 2.1 × 50 mm; Waters, Milford, MA) was applied in sample analysis.
First, the brain tissue partition coefficient Kp, brain was calculated using Eq. (1).
Where Css, brain is the mean steady-state total drug concentration in brain tissue, and Css, plasma is the mean steady-state total drug concentration in plasma (both measured by LC-MS/MS). […] Finally, Kp, uu, brain was calculated using Eq. (2).2 [drawing 2]

[2] = tested on: human P-gp; conditions: MDCKII cells overexpressing human P-gp; cited from earlier work
[3] = LC-MS/MS bioanalysis of plasma and brain homogenate, mouse model of brain metastasis (MDA231-BrM2-831); format: in vivo, NCr nude mice; conditions: for Kp at 2 h / Kp uu at 2 h / concentration at 2 h: female, NCr nude (CrTac:NCr-Foxn1nu), mouse, oral; for concentration at 2 h: oral once daily 5 days, niraparib 35 mg/kg or olaparib 50 mg/kg, 2 h after final dose
Source text: A luciferase-transfected human breast adenocarcinoma cell line (MDA 231-BRM2-831) was used to generate a metastatic brain tumor model in female athymic nude mice. […] NCr nude mice (strain: CrTac: NCr-Foxn1^nu; female; 5–7 weeks old; Taconic Biosciences (Germantown, NY)) were used for these studies. A power analysis was completed by a statistician to determine the appropriate sample sizes for each group to measure a statistically significant. […] Control mice (n = 10) underwent a sham IC procedure (needle insertion into the ventricle without cell injection. All mice were monitored for tumor development by bioluminescence imaging (BLI) approximately once weekly for ~ 45 days, beginning 1 h after cell injection. In vivo BLI was performed at ~ 10 min post-luciferin injection (corresponding to the peak bioluminescent signal) using an IVIS Spectrum-CT system (PerkinElmer, Waltham, MA). Imaging parameters were set to automatic exposure in the Living Image software, while the binning (8) and aperture (open f-stop) remained at the default settings for all BLI acquisitions. The imaging frequency was increased to twice weekly for mice that developed brain metastases (BMs) as indicated by increased bioluminescence in the cranial region. […] The exact tumor size was not measured as an endpoint of this study. […] Two hours after the final dose, mice were euthanized by CO2 asphyxiation. At necropsy, a terminal blood sample was collected via cardia puncture, and the brains were harvested and snap-frozen by floating on liquid nitrogen. […] From each plane, serial tissue sections were collected for MALDI MSI and for H&E staining, and immunohistochemistry (IHC) staining. Tissue trimmings from between each plane were collected, homogenized, and submitted for bioanalysis in addition to the terminal plasma samples.

[4] = design: method as in earlier work; conditions: humans, multiple-dose oral administration; cited from earlier work
[5] = in vitro; conditions: pH 7.4
Source text: The luciferase-transfected human breast cancer cell line (MDA231-BrM2-831) was purchased from Memorial Sloan Kettering Cancer Center (New York, NY). […] Deuterated olaparib (olaparib-d8) was purchased from Alsachim (Illkirch Graffenstaden, France). Cynomolgus macaque brain tissue (lot #CYN252598), rhesus macaque brain tissue (lot #RHS24901), rhesus macaque plasma (lot #RHS24900), CD1 mouse brain tissue (lot #MSE343926), and CD1 mouse plasma (lot #MSE343926) used in the protein-binding assays were obtained from BioIVT (Westbury, NY).
Brain (diluted 1:4 [5×] in PBS) or plasma (undiluted) were spiked with each test compound and applied to each matrix. Aliquots of each mixture were added to the donor wells of a rapid equilibrium dialysis plate in triplicate, and blank PBS was added to each receiver well, at volumes recommended by the manufacturer. Plates were incubated with shaking at 200 rpm for 4 h at 37 °C. At the end of incubation, samples were collected from each donor and receiver well. Samples were matrix-matched with the addition of an equivalent volume of blank matrix to each receiver sample and blank PBS to each donor sample. Additional samples were collected from each incubation mixture at the beginning (T = 0 min) and end (T = 240 min) of incubation for determination of stability, and matrix-matched with PBS as described above. The resultant samples were extracted by protein precipitation with acetonitrile containing an analytical internal standard, centrifuged, and analyzed by LC-MS/MS.

[6] = cited from earlier work
[7] = cited from earlier work; remark: listed apart in the source
[8] = brain, BM mice (niraparib n = 4, olaparib n = 3), read-out: Group mean (SD) Kp, brain
[9] = brain, BM mice (niraparib n = 4, olaparib n = 3), read-out: Group mean (SD) Kp, uu, brain
[10] = brain, No BM mice (n = 3), read-out: LC-MS/MS Bulk brain tissue, mean (SD)
[11] = brain, No BM mice (n = 3), read-out: Group mean (SD) Kp, brain
[12] = brain, No BM mice (n = 3), read-out: Group mean (SD) Kp, uu, brain
[13] = brain, all mice (BM and no-BM combined), read-out: Mean Kp, brain
[14] = brain, all mice (BM and no-BM combined), read-out: Mean Kp, uu, brain
[15] = plasma, No BM mice (n = 3), read-out: LC-MS/MS Terminal plasma, mean (SD)

SMILES | Kp ([1]; Mean Kp) | Kp uu ([1]; Mean Kp) | P-gp substrate status [2] | Kp at 2 h [3, 8] | Kp uu at 2 h [3, 9] | concentration at 2 h [3, 10] [ng/g] | Kp at 2 h [3, 11] | Kp uu at 2 h [3, 12] | Kp at 2 h [3, 13] | Kp uu at 2 h [3, 14] | concentration at 2 h [3, 15] [ng/mL] | also measured
O=C(c1cc(Cc2n[nH]c(=O)c3ccccc23)ccc1F)N1CCN(C(=O)C2CC2)CC1 [Olaparib] | 0.041 | 0.026 | substrates for P-gp | 0.102 | 0.047 | 5 | 0.027 | 0.015 | 0.036 | 0.022 | 226 | Kp, brain [1]: 0.044; Kp, uu, brain [1]: 0.028; Kp ([1]; Kp): 0.037; Kp uu ([1]; Kp): 0.024; Tmax [4]: 1 to 3 h; fraction unbound at 4 h, 1 µM ([5]; CD1, mouse, brain homogenate): 0.23; Fu ([5]; CD1, mouse, plasma, 4 h, 1 µM): 35.2%
NC(=O)c1cccc2cn(-c3ccc([C@@H]4CCCNC4)cc3)nc12 [Niraparib] | 3.18 | 0.313 | substrates for P-gp | 0.214 | 0.03 | 658 | 0.171 | 0.024 | 0.193 | 0.026 | 3850 | Kp, brain ([6]; P-gp knockout mice): 1.20; Kp, brain ([6]; P-gp/BCRP knockout mice): 1.46; Kp, brain ([6]; wild-type mice): 0.20; cell membrane permeability [7]: high; overall mean Kp, uu, brain, niraparib higher than olaparib ([3]; all mice (BM and no-BM combined)): about 1.2 fold; fraction unbound at 4 h, 1 µM ([5]; brain homogenate (diluted 1:4 [5×] in PBS)): 0.0295; fraction unbound at 4 h, 1 µM ([5]; cynomolgus monkey, brain homogenate (diluted 1:4 [5×] in PBS)): 0.0361; fraction unbound at 4 h, 1 µM ([5]; plasma (undiluted)): 0.22
